Experimental findings from patent US9629921B2, “Smart pro-drugs of serine protease inhibitors” (Trustees of Tufts College, priority 2002, dated 2017) are described below.

“And” between values parts separate entries of the source, which are not always exact repeats. Equal values may be shown once. Read-outs that look alike come from different tables or passages of the source.

Series [1] has as its target DPP IV (Homo sapiens, UniProt P27487). Nature of the series: In vitro DPP IV enzyme inhibition assay; inhibitors incubated at pH 2 or pH 8, then added to enzyme assay solution at pH 8.0. It counts as biochemical. On the procedure: Inhibitors were incubated overnight in pH 2 or pH 8 solutions and then added directly to an enzyme assay solution at pH 8.0.
It is important to note that the x-axis in FIG. 3 refers to the concentration of the SPI, not the concentration of the released Xaa-boroPro.

Series [2] concerns male Sprague-Dawley rats. As to the kind of experiment: Example 10: clinical signs and mortality after single oral administration in male rats.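 On all read-outs here: test articles given by mouth, formulated in deionized Type I water as vehicle.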 As to conditions: for Clinical Observation: one line per animal, wrapped cell 'Redness of ears' continues 'and paws'.
The target of series [3] is serum DPP IV (Mus musculus, UniProt P28843). Nature of the series: In vivo inhibition of serum DPP IV in db/db mice after oral dose. The conditions noted are these: Diabetic-control = 100.00.
Chain of serum DPP IV (P28843 37-760 limits assumed): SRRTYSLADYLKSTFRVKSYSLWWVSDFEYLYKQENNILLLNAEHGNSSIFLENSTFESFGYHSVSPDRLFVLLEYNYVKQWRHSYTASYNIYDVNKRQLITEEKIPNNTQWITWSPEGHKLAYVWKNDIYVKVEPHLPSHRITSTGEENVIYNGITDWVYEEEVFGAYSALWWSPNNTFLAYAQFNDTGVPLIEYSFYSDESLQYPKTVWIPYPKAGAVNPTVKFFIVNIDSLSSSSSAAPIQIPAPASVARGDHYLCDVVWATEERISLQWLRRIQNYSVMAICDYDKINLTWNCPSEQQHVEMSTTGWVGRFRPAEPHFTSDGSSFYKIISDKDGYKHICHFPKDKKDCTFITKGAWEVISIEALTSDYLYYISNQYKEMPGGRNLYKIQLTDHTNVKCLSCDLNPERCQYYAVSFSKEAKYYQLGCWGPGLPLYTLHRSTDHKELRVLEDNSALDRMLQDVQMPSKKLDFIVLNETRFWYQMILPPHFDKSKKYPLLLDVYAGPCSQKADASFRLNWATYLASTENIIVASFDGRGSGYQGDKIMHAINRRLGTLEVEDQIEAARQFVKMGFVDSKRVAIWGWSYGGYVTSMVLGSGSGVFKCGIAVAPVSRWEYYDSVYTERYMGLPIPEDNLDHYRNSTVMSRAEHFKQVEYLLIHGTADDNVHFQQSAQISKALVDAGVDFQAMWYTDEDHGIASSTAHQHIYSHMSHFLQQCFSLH
Series [4] has as its system Diabetic Mice. As to the kind of experiment: Toxicity (mortality) of Val-boroPro in diabetic mice. It counts as in vivo.
Series [5] relates to Zucker rats. Nature of the series: Toxicity (mortality) after oral dose in rats. Format: in vivo.
Where [6] appears, read: pH 2, ten minutes, read-out: IC50 Values at Ten Minutes pH 2.
The mark [7] stands for this setting: pH 8, ten minutes, read-out: IC50 Values at Ten Minutes pH 8.
The mark [8] stands for this setting: pH 2, read-out: Tetrapeptide Prodrugs (IC50) pH 2.
Where [9] appears, read: pH 8, read-out: Tetrapeptide Prodrugs (IC50) pH 8.
Setting [10] is: 2.5 mg/kg ALA-PRO boronic dose equivalents.
The mark [11] stands for this setting: 10.0 mg/kg ALA-PRO boronic dose equivalents.

Chain of DPP IV (P27487 whole entry, species assumed): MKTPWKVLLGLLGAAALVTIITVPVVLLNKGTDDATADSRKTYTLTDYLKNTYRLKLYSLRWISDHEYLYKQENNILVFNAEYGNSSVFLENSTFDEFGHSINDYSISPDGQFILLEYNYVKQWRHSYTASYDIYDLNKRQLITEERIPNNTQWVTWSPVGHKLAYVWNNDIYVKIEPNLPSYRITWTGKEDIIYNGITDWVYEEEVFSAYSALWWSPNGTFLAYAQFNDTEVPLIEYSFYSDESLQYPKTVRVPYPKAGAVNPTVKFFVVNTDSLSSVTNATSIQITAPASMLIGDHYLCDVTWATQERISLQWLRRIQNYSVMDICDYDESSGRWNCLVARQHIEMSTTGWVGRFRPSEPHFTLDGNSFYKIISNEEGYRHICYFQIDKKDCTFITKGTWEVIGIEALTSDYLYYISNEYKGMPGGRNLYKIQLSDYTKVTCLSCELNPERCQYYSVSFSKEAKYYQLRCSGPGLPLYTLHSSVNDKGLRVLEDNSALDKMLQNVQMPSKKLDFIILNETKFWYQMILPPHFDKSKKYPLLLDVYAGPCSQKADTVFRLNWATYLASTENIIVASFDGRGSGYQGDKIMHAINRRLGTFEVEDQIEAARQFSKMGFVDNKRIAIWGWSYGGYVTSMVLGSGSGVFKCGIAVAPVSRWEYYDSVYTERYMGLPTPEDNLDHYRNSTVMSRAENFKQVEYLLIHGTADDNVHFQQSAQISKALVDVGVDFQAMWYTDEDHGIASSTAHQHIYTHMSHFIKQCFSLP

As to `CC(NC(=O)C(C)(C)N)C(=O)NC(C(=O)N1CCCC1B(O)O)C(C)C` (centres unmarked) [AibAlaValboroPro], the IC50 in series [1] (setting [6]) is 2000 nM.

Take `CC(N)C(=O)NC(C)C(=O)N1CCCC1C(=O)N1CCCC1B(O)O` (centres unmarked) [AlaAlaProboroPro]: the IC50 in series [1] (setting [6]) worked out at 3000 nM.

`CC(N)C(=O)NC(C)C(=O)NC(C(=O)N1CCCC1B(O)O)C(C)C` (centres unmarked) [AlaAlaValboroPro]: the half-inhibitory concentration (IC50) in series [1] (setting [6]) amounted to 2000 nM; in series [1] (setting [7]) it was 25000 nM.

`CC(N)C(=O)N1CCCC1C(=O)N1CCCC1C(=O)N1CCCC1B(O)O` (centres unmarked) [AlaProProboroPro]: the concentration for half-maximal inhibition (IC50) in series [1] (setting [6]) was determined as 8300 nM.

For the compound `CC(N)C(=O)N1CCCC1C(=O)NC(C(=O)N1CCCC1B(O)O)C(C)C` (centres unmarked) [AlaProValboroPro], the IC50 was determined as 20 nM in series [1] (setting [8]), 20 nM in series [1] (setting [6]), 21 nM in series [1] (setting [9]) and 21 nM in series [1] (setting [7]).

Regarding `CCC(NC(=O)C(C)NC(=O)C(N)C1CCCCC1)C(=O)NC(C)B(O)O` (centres unmarked) [ChgAlaEtgboroAla], the 50% inhibitory concentration (IC50) in series [1] (setting [6]) was determined as 1300 nM; in series [1] (setting [7]) it was 2500 nM.

With `CCC(NC(=O)C(C)NC(=O)C(N)C1CCCCC1)C(=O)N1CCCC1B(O)O` (centres unmarked) [ChgAlaEtgboroPro], the half-inhibitory concentration (IC50) in series [1] (setting [6]) turned out to be 600 nM; in series [1] (setting [7]), 802 nM.

Take `CC(NC(=O)C(N)C1CCCCC1)C(=O)N1CCCC1C(=O)N1CCCC1B(O)O` (centres unmarked) [ChgAlaProboroPro]: the values for the IC50 in series [1] (setting [6]) and in series [1] (setting [7]) were 2000 nM and 30000 nM, respectively.

In the case of `CC(NC(=O)C(N)C1CCCCC1)C(=O)NC(C(=O)N1CCCC1B(O)O)C(C)C` (centres unmarked) [ChgAlaValboroPro], the IC50 in series [1] (setting [8]) turned out to be 190 nM; in series [1] (setting [6]), 190 nM; in series [1] (setting [9]) it was 360 nM; in series [1] (setting [7]) it was 360 nM.

As for `CCC(NC(=O)C1CCN1C(=O)C(N)C1CCCCC1)C(=O)N1CCCC1B(O)O` (centres unmarked) [ChgAzeEtgboroPro], the half-maximal inhibitory concentration (IC50) came to 15 nM in series [1] (setting [6]) and 16 nM in series [1] (setting [7]).

In the case of `CCC(NC(=O)C1CC(O)CN1C(=O)C(N)C1CCCCC1)C(=O)N1CCCC1B(O)O` (centres unmarked) [ChgHypEtgboroPro], the values for the IC50 in series [1] (setting [6]) and in series [1] (setting [7]) were 17 nM and 25 nM, respectively.

Consider `CC(C)(C)[C@H](NC(=O)[C@@H]1CCCN1C(=O)[C@@H](N)C1CCCCC1)C(=O)N1CCC[C@H]1B(O)O` [ChgProBugboroPro], for which the IC50 in series [1] (setting [6]) was 1500 nM; in series [1] (setting [7]) it was 8000 nM.

As for `CC(NC(=O)C(NC(=O)C1CCCN1C(=O)C(N)C1CCCCC1)C1CCCCC1)B(O)O` (centres unmarked) [ChgProChgboroAla], the IC50 was determined as 180 nM in series [1] (setting [8]), 180 nM in series [1] (setting [6]), 170 nM in series [1] (setting [9]) and 170 nM in series [1] (setting [7]).

As to `NC(C(=O)N1CCCC1C(=O)NC(C(=O)N1CCCC1B(O)O)C1CCCCC1)C1CCCCC1` (centres unmarked) [ChgProChgboroPro], the IC50 in series [1] (setting [6]) and in series [1] (setting [7]) was 14 nM throughout.

Consider `CCC(NC(=O)C1CCCN1C(=O)C(N)C1CCCCC1)C(=O)N1CCCC1B(O)O` (centres unmarked) [ChgProEtgboroPro], for which the results for the 50% inhibitory concentration (IC50) in series [1] (setting [6]) and in series [1] (setting [7]) were 12 nM and 14 nM, respectively.

With `CC(NC(=O)C(NC(=O)C1CCCN1C(=O)C(N)C1CCCCC1)C(C)(C)C)B(O)O` (centres unmarked) [ChgProtBugboroAla], the IC50 in series [1] (setting [6]) was 6800 nM; in series [1] (setting [7]), 8400 nM.

Consider `CC[C@H](NC(=O)[C@@H]1CSCN1C(=O)[C@@H](N)C1CCCCC1)C(=O)N1CCC[C@H]1B(O)O` [ChgThz4EtgboroPro], for which the IC50 in series [1] (setting [6]) came to 13 nM; in series [1] (setting [7]), 16 nM.

Take `NCC(=O)N1CCCC1C(=O)N1CCCC1C(=O)N1CCCC1B(O)O` (centres unmarked) [GlyProProboroPro]: the half-inhibitory concentration (IC50) is 9000 nM in series [1] (setting [8]), 8600 nM in series [1] (setting [6]) and 20000 nM in series [1] (setting [7]).

`CC(C)C(NC(=O)C1CCCN1C(=O)CN)C(=O)N1CCCC1B(O)O` (centres unmarked) [GlyProValboroPro]: the IC50 in series [1] (setting [8]) amounted to 17 nM; in series [1] (setting [6]), 17 nM; in series [1] (setting [9]), 46 nM; in series [1] (setting [7]), 46 nM.

For `CNC(Cc1ccccc1)C(=O)N1CCCC1C(=O)NC(C)C(=O)N1CCCC1B(O)O` (centres unmarked) [N—Me-PheProAlaboroPro, N-Me-Phe-PRO-ALA-PRO Boronic Acid], the values for the 50% inhibitory concentration (IC50) in series [1] (setting [6]) and in series [1] (setting [7]) were 2000 nM and 2700 nM, respectively. Moreover, the “Clinical Observation” value is “None” in series [2] (0.5 mg/kg ALA-PRO boronic dose equivalents); “Redness of ears and None (2×)” in series [2] (setting [10]); “None (2×) and Redness of ears” in series [2] (setting [11]). Besides, the “Approximate Onset of Observation (Time post-dose)” value is about 2 h in series [2] (setting [10]) and about 4 h in series [2] (setting [11]).

Regarding `CC(NC(=O)C1CCCN1C(=O)C(N)Cc1ccccc1)C(=O)N1CCCC1B(O)O` (centres unmarked) [PheProAlaboroPro, Phenylalanine-Proline-Alanine-Proline Boronic Acid], the half-maximal inhibitory concentration (IC50) in series [1] (setting [6]) came to 6 nM; in series [1] (setting [7]), 8 nM.

As to `O=C(C1CCCN1)N1CCCC1B(O)O` (centres unmarked) [Pro-boroPro, reference compound], the “pH dependence of DPP IV inhibition” value in series [1] (pre-incubated at low pH vs high pH (FIG. 3, FIG. 64, Table 1)) is given as “more effective as inhibitors of DPP IV when pre-incubated at low pH than at high pH”.

For the compound `O=C(C1CCCN1C(=O)C1CCCN1C(=O)C1CCCN1)N1CCCC1B(O)O` (centres unmarked) [ProProProboroPro], the 50% inhibitory concentration (IC50) in series [1] (setting [8]) and in series [1] (setting [6]) was 10000 nM throughout.

On to `CC(NC(=O)C1CCCN1C(=O)C(N)Cc1ccc(O)cc1)C(=O)N1CCCC1B(O)O` (centres unmarked) [TyrProAlaboroPro, Tyrosine-Proline-Alanine-Proline Boronic Acid], for which the 50% inhibitory concentration (IC50) in series [1] (setting [6]) came to 15 nM; in series [1] (setting [7]), 17 nM.

On to `NC(Cc1ccc(O)cc1)C(=O)N1CCCC1C(=O)NC(Cc1ccccc1)C(=O)N1CCCC1B(O)O` (centres unmarked) [TyrProPheboroPro], for which the half-maximal inhibitory concentration (IC50) in series [1] (IC50 Values at Ten Minutes pH 2, pH 2, ten minutes) stood at 50 nM; in series [1] (IC50 Values at Ten Minutes pH 8, pH 8, ten minutes), 60 nM.

With `CC(C)[C@H](N)C(=O)N1CCC[C@H]1B(O)O` [Val-boroPro], the “In vivo inhibition of serum DPP IV” value in series [3] (0.0025 mg/kg, 1 hr Post Rx-Glucose) was determined as 94.52; in series [3] (0.0025 mg/kg, 4 hrs Post Rx-Glucose), 93.30; in series [3] (0.01 mg/kg, 1 hr Post Rx-Glucose), 59.36; in series [3] (0.01 mg/kg, 4 hrs Post Rx-Glucose), 58.85; in series [3] (0.025 mg/kg, 1 hr Post Rx-Glucose) it was 47.49; in series [3] (0.025 mg/kg, 4 hrs Post Rx-Glucose), 39.23. Moreover, the MORTALITY in series [4] (0.035 mg/kg, Diabetic Mice (starved), 8 animals dosed, project 011050) is 0; in series [4] (0.035 mg/kg, Diabetic Mice, 7 animals dosed, project 010757) it was 0; in series [4] (0.035 mg/kg, Diabetic Mice, 8 animals dosed, project 011050 group 3), 0; in series [4] (0.35 mg/kg, Diabetic Mice, 7 animals dosed, project 010757), 0; in series [4] (3.5 mg/kg, Diabetic Mice, 7 animals dosed, project 010757) it was 0; in series [5] (0.035 mg/kg Oral, Zucker Lean, 4 animals dosed, project 002969), 1. The MORTALITY came out at 4 in series [5] (0.035 mg/kg Oral, Zucker Obese, 4 animals dosed, project 002969); 4 in series [5] (0.35 mg/kg Oral, Zucker Lean, 4 animals dosed, project 002969); 4 in series [5] (0.35 mg/kg Oral, Zucker Obese, 4 animals dosed, project 002969); 2 in series [5] (1.75 mg/kg Oral, Zucker Lean, 4 animals dosed, project 002969); 2 in series [5] (1.75 mg/kg Oral, Zucker Obese, 4 animals dosed, project 002969); 3 in series [5] (5 mg/kg Oral, Zucker Lean, 3 animals dosed, project 002898). In series [5] (5 mg/kg Oral, Zucker Obese, 4 animals dosed, project 002898), this compound showed an MORTALITY of 4. In series [4] (3.5 mg/kg), the “Toxic effect in mice” value is listed as “no noticeable toxic effect”. In addition, the Toxicity to mice result in series [4] (mice) is reported as “apparently not at all”. The “Mortality (rats killed)” value in series [5] (Zucker rats, dose of 0.035 mg/kg) is “four out of four”. In addition, the Toxicity to rats result in series [5] (rats) is reported as “quite toxic to rats”.

With `CC(NC(=O)C1CCCN1C(=O)C(N)C(C)(C)C)C(=O)N1CCCC1B(O)O` (centres unmarked) [tBugProAlaboroPro], the IC50 was 14 nM in series [1] (setting [6]) and 18 nM in series [1] (setting [7]).

For the compound ChgDhpEtgboroPro, the values for the IC50 in series [1] (setting [6]) and in series [1] (setting [7]) were 15 nM and 17 nM, respectively.

In the case of ChgPipEtgboroPro, the IC50 in series [1] (setting [6]) was 19 nM; in series [1] (setting [7]) it was 14 nM.

As usually defined, the IC50 is the concentration that gives 50% inhibition.
